The source of these data is US6921541B2, “Formulations and methods for providing prolonged local anesthesia” (Euro-Celtique S.A., priority 1995, dated 2005).

Where two headings read alike, the source gives them in different places.

The conditions of data set [1]: immediate release vasoconstrictor; at best; cited from earlier work.

Method for rat sciatic nerve: The duration of local anesthesia induced by the bupivacaine-loaded microspheres, prepared from PLGA 65:35, with and without the co-administration of an augmenting agent, is tested in a rat sciatic nerve model for localized local anesthesia. […] The latency test determines the time, in seconds, before a rat withdraws its hindpaw from a hotplate set to a safe but uncomfortable temperature (56° C.).
Maximum sciatic nerve sensory blockade is defined as having a latency of about 12 seconds or higher.
In this example, a large number of pharmaceutical agents were tested for activity in augmenting the duration of local anesthetic activity. Bupivacaine-containing microspheres at about 75% loading, by weight, were injected perineurally into rat sciatic nerve at a dose of 150mg/kg (weight microspheres/weight rat) to dose of approximately 50 mg/nerve. For the injections, needle placement adjacent to the target nerve was optimized by intermittent electrical e stimulation of the target nerve (via the injection needle) with low amplitude current to produce limb flexion. For the injections, the microspheres were suspended in a carrier vehicle suitable for injection. While any pharmaceutically acceptable carrier vehicle is acceptable, for these experiments the carrier vehicle was 1% sodium carboxymethylcellulose and 1% Tween 80 in water.
Compounds to be tested were co-injected with bupivacaine containing microspheres (i.e., mixed as additives into the carrier vehicle) in a range of concentrations. Results are expressed as percent increase in duration relative to non-augmented durations that were obtained in the same animal model.

Regarding `COc1cc2c(c(OC)c1OC)-c1ccc(OC)c(=O)cc1[C@@H](NC(C)=O)CC2` [Colchicine], the “Duration Anesthesia As Percent of Control” value was 0% of Control in the data set on rat sciatic nerve (0.1 % additive conc., Placebo (no bupivacaine)) and 0% of Control in the data set with rat sciatic nerve (10 % additive conc., no LAB). Also, the “Duration Anesthesia As Percent of Control (toxicity noted)” value in the data set with rat sciatic nerve (10 % additive conc. in carrier vehicle, LAB 150 mg/kg) is recorded as “toxic”.

In the case of `CNC[C@H](O)c1ccc(O)c(O)c1` [epinephrine], the “prolongation of local anesthetic activity” value in data set [1] is on record as “about 1 hour”.
